Consider 24 compounds from patent US6784175B2, “Use of substituted 1-amino-5-phenylpentane-3-ol and/or 1-amino-6-phenylhexane-3-ol compounds as medicaments” (Gruenenthal GmbH, priority 2000, dated 2004).

The test system of this assay is (+)-MK801 binding site of the ionotropic NMDA receptor. The experiment in a line: (3H)-(+)-MK801 receptor bonding test on rat cerebral membrane homogenates. The conditions noted are these: 1 nmol/l (3H)-(+)-MK801, rat brain membrane homogenate; for Percentage inhibition of (3H)-(+)-MK801 binding at 10 μM: 10 μmol/l compound, triple determinations; for Ki: calculated from IC50 by Cheng-Prusoff equation. The procedure:
Research to determine the NMDA antagonistic effect of each compound in general formula I was carried out on cerebral membrane homogenates (homogenate of rat brain without cerebellum, pons and medulla oblongata taken from male Wistar rats (Charles River, Sulzfeld, Germany)).
For this purpose, after separating the cerebellum, pons and medulla oblongata, freshly prepared rat brains were macerated in 50 mmol/l of tris/HCl (pH 7.7) with a Polytron homogeniser (model PT3000, Kinematika AG, Littau, Switzerland) at 6000 revolutions per minute (rpm) for 1 minute with ice cooling and centrifuged for 15 minutes at 4° C. and 60,000 g. After decanting and discarding the supernatant, again placing in 50 mmol/l of tris/HCl (pH 7.7) and macerating the membrane pellet with a homogeniser at 2000 rpm for 1 minute, it was centrifuged again for 15 minutes at 4° C. and 60,000 g. The supernatant was again discarding and the membrane pellet homogenised (2000 rpm for 1 minute) in 50 mmol/l of tris/HCl (pH 7.7) and frozen in aliquots at −70° C.
For the receptor bonding test, each aliquot was defrosted and then centrifuged for 15 minutes at 4° C. and 60,000 g. After decanting and discarding the supernatant, the membrane pellet was taken up with bonding test buffer and homogenised (2000 rpm for 1 minute). The bonding test buffer was 5 mmol/l tris/HCl (pH 7.7) supplemented with 30 μmol/l of glycine and 100 μmol/l of glutamic acid.
1 nmol/l of (^3H)-(+)-MK801 ((5R, 10S)-(+)-5-methyl-10,11-dihydro-5H-dibenzo(a,d)cycloheptane-5,10-imine was used as a radioactively marked ligand (NET-972, NEN, Cologne Germany). The proportion of unspecific bonding was determined in the presence of 10 μmol/l of non-radioactively marked (+)-MK801 (RBI/Sigma, Deisenhofen, Germany). In further batches, each of the compounds of general formula I were added in series of concentrations and the displacement of the radioactive ligand out of its specific bond to the NMDA receptor determined. All the batches were subjected to triple determinations. The batches were each incubated for 40 minutes at 25° C. in a water bath and then harvested for determination of the radioactive ligand bound to the cerebral membrane homogenate by means of filtration through glass-fibre filters (GF/B) (Whatman GF/B, Hassel, Munich, Germany). The radioactivity retained by the glass-fibre filter discs was measured in a β counter (Packard TRI-CARB Liquid Scintillation Analyser 2000CA, Packard Instrument, Meriden, Conn. 06450, USA) after adding a scintillator (“Ready Protein” scintillator, Beckmann Coulter GmhH, Krefeld, Germany).
The percentage inhibition of the specific bonding of the ligand (^3H)-(+)-MK801 in the presence of 10 μmol/l of each compound of general formula I resulting from the triple batches is used as a measure of the affinity of the compound for the (+)-MK801 binding site of the ionotropic NMDA receptor. From batches with concentration series of these compounds of general formula I, the IC50 values (concentration of substituted compounds with 50% displacement of radioactive ligand out of its specific bond) were calculated in accordance with the law of mass action using non-linear regression. From these IC50 values, the Kj values were calculated in accordance with the Cheng-Prusoff equation (Y. Cheng, W. H. Prusoff, 1973, Biochem. Pharmacol., 22, pp 3099-3108).

In the case of `CN(C)C(c1cccc(F)c1)C1CCCCC1(O)CCc1ccccc1Cl.Cl` (stereo not drawn) [Example 22, 1-[2-(2-chlorophenyl)ethyl]-2-(dimethylamino-(3-fluorophenyl)methyl]cyclohexanol, hydrochloride], the “Percentage inhibition of (3H)-(+)-MK801 binding at 10 μM” value (shortened to “Percentage inhibition”) came to 74% and the Ki is 3000 nM.

Take `Cc1ccccc1C(C1CCCCC1(O)CCc1ccccc1Cl)N1CCOCC1.Cl` (stereo not drawn) [Example 24, 1-[2-(2-chlorophenyl)ethyl]-2-(morpholine-4-yl-o-tolylmethyl)cyclohexanol, hydrochloride]: the “Percentage inhibition” value amounted to 48% and the Ki was 3700 nM.

With `Cc1ccccc1C(C1CCCCC1(O)CCc1ccccc1Cl)N1CCCCC1.Cl` (stereo not drawn) [Example 25, 1-[2-(2-chlorophenyl)ethyl]-2-(piperidine-1-yl-o-tolylmethyl)cyclohexanol, hydrochloride], the “Percentage inhibition” value is reported as 89% and the Ki was 1400 nM.

As for `Cc1ccccc1C(C1CCCCC1(O)CCc1cccc(Cl)c1)N(C)C.Cl` (stereo not drawn) [Example 26, 1-[2-(3-chlorophenyl)ethyl]-2-(dimethylamino-o-tolylmethyl)cyclohexanol, hydrochloride], the “Percentage inhibition” value (hydrochloride, 10 µM) came to 89%. In addition, the Ki (hydrochloride) is 1300 nM.

For `CN(C)C(c1ccccc1C(F)(F)F)C1CCCCC1(O)CCc1ccccc1.Cl` (stereo not drawn) [Example 27, 2-[dimethylamino-(2-trifluoromethylphenyl)methyl]-1-phenethylcyclohexanol, hydrochloride], the “Percentage inhibition” value is recorded as 67% and the Ki is 4200 nM.

As to `COc1ccccc1C(C1CCCCC1(O)CCc1ccccc1F)N(C)C.Cl` (stereo not drawn) [Example 28, 2-[dimethylamino-(2-methoxyphenyl)methyl]-1-[2-(2-fluorophenyl)ethyl]cyclohexanol, hydrochloride], the “Percentage inhibition” value was determined as 82% and the Ki was 2500 nM.

For `CN(C)C(c1ccccc1F)C1CCCCC1(O)CCc1ccccc1F.Cl` (stereo not drawn) [Example 29, 2-[dimethylamino-(2-fluorophenyl)methyl]-1-[2-(2-fluorophenyl)ethyl]cyclohexanol, hydrochloride], the “Percentage inhibition” value came to 104% and the Ki is 300 nM.

With `Cc1ccccc1C(C1CCCCC1(O)CCc1ccccc1F)N(C)C.Cl` (stereo not drawn) [Example 30, 2-(dimethylamino-o-tolylmethyl)-1-[2-(2-fluorophenyl)ethyl]cyclohexanol, hydrochloride], the “Percentage inhibition” value is given as 105% and the Ki is 300 nM.

Consider `Cc1ccccc1C(C1CCCCC1(O)CCc1ccccc1F)N1CCCC1.Cl` (stereo not drawn) [Example 31, 1-[2-(2-fluorophenyl)ethyl]-2-(pyrrolidine-1-yl-o-tolylmethyl)cyclohexanol, hydrochloride], for which the “Percentage inhibition” value stood at 99% and the Ki is 100 nM.

`CN(C)C(c1ccccc1Br)C1CCCCC1(O)CCc1ccccc1Cl.Cl` (stereo not drawn) [Example 32, 2-[(2-bromophenyl)dimethylaminomethyl]-1-[2-(2-chlorophenyl)ethyl]cyclohexanol, hydrochloride]: the “Percentage inhibition” value was found to be 96% and the Ki is 700 nM.

`CN(C)C(c1ccccc1Cl)C1CCCCC1(O)CCc1ccccc1Cl.Cl` (stereo not drawn) [Example 33, 2-[(2-chlorophenyl)dimethylaminomethyl]-1-[2-(2-chlorophenyl)ethyl]cyclohexanol, hydrochloride]: the “Percentage inhibition” value turned out to be 93% and the Ki is 600 nM.

With `CN(C)C(c1ccccc1Br)C1CCCCC1(O)CCc1ccccc1F.Cl` (stereo not drawn) [Example 34, 2-[(2-bromophenyl)dimethylaminomethyl]-1-[2-(2-fluorophenyl)ethyl]cyclohexanol, hydrochloride], the “Percentage inhibition” value came to 95% and the Ki was 400 nM.

For `Cc1ccccc1CCC1(O)CCCCC1C(c1ccccc1Cl)N(C)C.Cl` (stereo not drawn) [Example 35, 2-[(2-chlorophenyl)dimethylaminomethyl]-1-(2-o-tolylethyl)cyclohexanol, hydrochloride], the “Percentage inhibition” value is recorded as 93% and the Ki is 1800 nM.

Consider `CN(C)C(c1ccccc1Cl)C1CCCCC1(O)CCCc1ccccc1.Cl` (stereo not drawn) [Example 36, 2-[(2-chlorophenyl)dimethylaminomethyl]-1-(3-phenylpropyl)cyclohexanol, hydrochloride], for which the “Percentage inhibition” value came to 85% and the inhibitory constant (Ki) was 1900 nM.

As for `Cc1ccccc1CCC1(O)CCCCC1C(c1ccccc1)N(C)C.Cl` (stereo not drawn) [Example 37, 2-(dimethylaminophenylmethyl)-1-(2-o-tolylethyl)cyclohexanol, hydrochloride], the “Percentage inhibition” value was 77% and the Ki was 1800 nM.

As for `Cc1ccccc1CCC1(O)CCCCC1C(c1ccccc1Br)N(C)C.Cl` (stereo not drawn) [Example 38, 2-[(2-bromophenyl)dimethylaminomethyl]-1-(2-o-tolylethyl)cyclohexanol, hydrochloride], the “Percentage inhibition” value is given as 93% and the Ki was 2300 nM.

Regarding `Cc1ccccc1CCC1(O)CCCCC1C(c1ccccc1C)N(C)C.Cl` (stereo not drawn) [Example 39, 2-(dimethylamino-o-tolylmethyl]-1-(2-o-tolylethyl)cyclohexanol, hydrochloride], the “Percentage inhibition” value stood at 90% and the Ki was 1400 nM.

Regarding `CN(C)C(c1ccccc1Br)C1CCCCC1(O)CCCc1ccccc1.Cl` (stereo not drawn) [Example 40, 2-[(2-bromophenyl)dimethylaminomethyl]-1-(3-phenylpropyl)cyclohexanol, hydrochloride], the “Percentage inhibition” value was found to be 82% and the Ki is 1900 nM.

For the compound `CN(C)C(c1ccc(F)cc1Cl)C1CCCCC1(O)CCc1ccccc1F.Cl` (stereo not drawn) [Example 41, 2-[(2-chloro4-fluorophenyl)dimethylaminomethyl]-1-[2-(2-fluorophenyl)ethyl]cyclohexanol, hydrochloride], the “Percentage inhibition” value was 94% and the Ki is 1200 nM.

Regarding `CN(C)C(c1ccc(F)cc1Cl)C1CCCCC1(O)CCc1ccccc1Cl.Cl` (stereo not drawn) [Example 42, 2-[(2-chloro4-fluorophenyl)dimethylaminomethyl]-1-[2-(2-chlorophenyl)ethyl]cyclohexanol, hydrochloride], the “Percentage inhibition” value is 85% and the Ki is 2000 nM.

As to `Cc1ccccc1CCC1(O)CCCCC1C(c1ccccc1F)N(C)C.Cl` (stereo not drawn) [Example 43, 2-[dimethylamino-(2-fluorophenyl)methyl]-1-(2-o-tolylethyl)cyclohexanol, hydrochloride], the “Percentage inhibition” value was 92% and the inhibition constant (Ki) is 1400 nM.

In the case of `CN(C)C(c1ccccc1F)C1CCCCC1(O)CCCc1ccccc1.Cl` (stereo not drawn) [Example 44, 2-[dimethylamino-(2-fluorophenyl)methyl]-1-(3-phenylpropyl)cyclohexanol, hydrochloride], the “Percentage inhibition” value stood at 91% and the Ki is 1400 nM.

In the case of `Cc1ccccc1C(C1CCCCC1(O)CCCc1ccccc1)N(C)C.Cl` (stereo not drawn) [Example 45, 2-(dimethylamino-o-tolylmethyl)1-(3-phenylpropyl)cyclohexanol, hydrochloride], the “Percentage inhibition” value is on record as 91% and the Ki is 1800 nM.

With `CN(C)C(c1ccccc1C(F)(F)F)C1CCCCC1(O)CCc1ccccc1Cl.Cl` (stereo not drawn) [Example 46, 1-[2-(2-chlorophenyl)ethyl]-2-[dimethylamino-(2-trifluoromethylphenyl)methyl]cyclohexanol, hydrochloride], the “Percentage inhibition” value came out at 79% and the Ki is 1900 nM.

A word on the Ki: it is a measure of affinity in units of concentration, obtained from inhibition or displacement.
